SMILES strings stand for the structures.

The experiment is described as follows: Binding affinity was determined against uridine phosphorylase in Sarcoma 180 cells. The class given is cell-based.

`O=c1[nH]c(=O)n(COCCO)cc1Cc1ccccc1` displayed a Ki of 98 nM.
The figure for `NCC(CO)OCn1cc(Cc2ccccc2)c(=O)[nH]c1=O` (stereo not drawn) is 20 nM; for `O=c1[nH]c(=O)n(COC(CO)CO)cc1Cc1ccccc1` it is 98 nM.

One may read the Ki as the dissociation constant of the complex between target and ligand, obtained from inhibition or displacement.

(Values after ChEMBL document CHEMBL1122907, “Synthesis of 1-[[2-hydroxy-1-(hydroxymethyl)ethoxy] methyl]-5-benzyluracil and its amino analogue, new potent uridine phosphorylase inhibitors with high water solubility” (J Med Chem, 1985).)
